Measured values as given in article PMC7806935, “Exosite inhibition of ADAMTS-5 by a glycoconjugated arylsulfonamide” (Scientific Reports, 2021).

Target: T1, ADAMTS-5 MDTCS (Homo sapiens, UniProt Q9UNA0)
T1 construct: ADAMTS-5 MDTCS (lacking the C-terminal TS motif but retaining full versicanase activity); made in house; host or cells: HEK293T
T1 sequence (Q9UNA0 262-874 limits assumed): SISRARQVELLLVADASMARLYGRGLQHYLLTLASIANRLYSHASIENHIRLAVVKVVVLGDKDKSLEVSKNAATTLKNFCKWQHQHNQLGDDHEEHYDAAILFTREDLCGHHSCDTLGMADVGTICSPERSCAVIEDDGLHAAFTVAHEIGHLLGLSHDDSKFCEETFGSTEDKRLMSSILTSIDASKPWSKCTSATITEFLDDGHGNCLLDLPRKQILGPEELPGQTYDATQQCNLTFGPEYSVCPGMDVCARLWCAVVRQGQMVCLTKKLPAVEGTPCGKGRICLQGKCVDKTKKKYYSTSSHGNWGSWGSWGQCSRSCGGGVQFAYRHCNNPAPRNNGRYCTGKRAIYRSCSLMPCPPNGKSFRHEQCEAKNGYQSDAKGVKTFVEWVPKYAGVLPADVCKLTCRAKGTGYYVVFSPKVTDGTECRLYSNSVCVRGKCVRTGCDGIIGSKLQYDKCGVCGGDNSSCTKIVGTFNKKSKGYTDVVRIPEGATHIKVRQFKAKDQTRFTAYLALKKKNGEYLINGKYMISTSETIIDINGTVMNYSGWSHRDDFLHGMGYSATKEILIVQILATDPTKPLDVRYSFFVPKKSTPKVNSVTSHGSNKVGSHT
Experiment: Dual inhibition study (GM6001 with or without 4b, QF peptide cleavage)
Assay type: biochemical
Protocol: Figure 3 Compound 4b binds to the ADAMTS-5 Mp/Dis domains in the presence of GM6001. (A, B) Compound 4b inhibits versicanase activity of both full-length (FL) ADAMTS-5 and its variant containing only the Mp/Dis domains (ADAMTS-5 MD). Compound 4b (100 μM) or DMSO was incubated either with ADAMTS-5 FL (0.2 nM, A) or ADAMTS-5 MD (26 nM, B) for 2 h at 37 °C before addition of V1-5GAG (50 nM). At each time point, reactions were stopped by addition of EDTA and versikine fragments quantified by sandwich ELISA as reported in the Methods section. In the DMSO control, complete proteolysis was achieved after 7200 s. […]
QF peptide cleavage assays were conducted in 96-well black microtiter plates (Scientific Laboratories Supplies Ltd, Wilford, UK) using a Fluostar Omega microplate reader (BMG Labtech, Aylesbury, UK). The activity of ADAMTS-4 (1 nM) and -5 (5 nM) was monitored for 2 h using the fluorescent peptide substrates fluorescein 5(6)-carbonyl-Ala-Glu-Leu-[…]-Gly-Arg-Pro-Ile-Ser-Ile-Ala-Lys-N,N,N0,N0-tetramethyl-6-carboxyrhodamine-NH2 (FAM-AE ~ LQGRPISIAK-TAMRA, ADAMTS-4) and fluorescein 5(6)-carbonyl-Thr-Glu-Ser-Glu ~ Ser-Arg-Gly-Ala-Ile-Tyr-Lys-Lys-N,N,N0,N0-tetramethyl-6-carboxyrhodamine-NH2 (FAM-TESE ~ SRGAIYKK-TAMRA, ADAMTS-5) (custom-synthesized by Bachem, Bubendorf, Switzerland) with an excitation wavelength of 485 nm and an emission wavelength of 538 nm. […]

IC50 (QF peptide, DMSO, no 4b, read-out: IC50^− (in the absence of 4b)): 0.37 ± 0.09 µM
IC50^+/IC50^− (ratio with/without 10 μM 4b, < 1 synergistic): 0.043
SMILES: CNC(=O)[C@H](Cc1c[nH]c2ccccc12)NC(=O)[C@@H](CC(=O)NO)CC(C)C [GM6001]
